The structures appear in SMILES notation.

One experiment concerns Viola tricolor. As to the kind of experiment: Pre-emergence herbicidal action, VIOTR. The experiment is classed as in vivo. The following applies: dosage 320 g/ha, scored visually after 3 weeks vs untreated controls (100% = plants have died). In short, it runs like this:
(§1)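 Sown pots (sandy loam) sprayed pre-emergence → greenhouse → visual rating at 3 weeks; % activity vs untreated control, 100% = dead.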
Consider `CCn1nnnc1NC(=O)c1ccc(C(F)(F)F)c(CSC)c1SC` [Example 2-161], for which the “herbicidal activity VIOTR” value was 100%.
Turning to `Cn1nnnc1NC(=O)c1ccc(C(F)(F)F)c(CS(C)(=O)=O)c1Cl` [Example 1-298], the “herbicidal activity VIOTR” value is 100%.
Consider `Cc1c(C(=O)Nc2nnnn2C)ccc(C(F)(F)F)c1C[S+](C)[O-]` (stereo not shown) [Example 1-84], for which the “herbicidal activity VIOTR” value turned out to be 100%.
As for `CSCc1c(C(F)(F)F)ccc(C(=O)Nc2nnnn2C)c1Br` [Example 1-380], the “herbicidal activity VIOTR” value was 100%.
On the same count and under the same terms, then `CSCc1c(C(F)(F)F)ccc(C(=O)Nc2nnnn2C)c1Cl` [Example 1-296], with 100%; and `CCn1nnnc1NC(=O)c1ccc(C(F)(F)F)c(C[S+](C)[O-])c1Br` (stereo not shown) [Example 2-381], with 100%; and `Cn1nnnc1NC(=O)c1ccc(Cl)c(CS(C)(=O)=O)c1Cl` [Example 1-561], with 100%.

Another experiment concerns Pharbitis purpurea. Kind of experiment: Pre-emergence herbicidal action, PHBPU. The class given is in vivo. The conditions noted are these: dosage 320 g/ha, scored visually after 3 weeks vs untreated controls (100% = plants have died). In a few lines:
as §1
In the case of `Cn1nnnc1NC(=O)c1ccc(C(F)(F)F)c(CS(C)(=O)=O)c1Cl` [Example 1-298], the “herbicidal activity PHBPU” value was found to be 90%.
Still for that read-out and setting: under `Cc1c(C(=O)Nc2nnnn2C)ccc(C(F)(F)F)c1C[S+](C)[O-]` (stereo not shown) [Example 1-84] stands 80%; under `CSCc1c(C(F)(F)F)ccc(C(=O)Nc2nnnn2C)c1Br` [Example 1-380], 80%; under `CCn1nnnc1NC(=O)c1ccc(C(F)(F)F)c(C[S+](C)[O-])c1Br` (stereo not shown) [Example 2-381], 80%.

Another experiment deals with Lolium multiflorum. Kind of experiment: Post-emergence herbicidal action, LOLMU. The conditions noted are these: post-emergence, dosage 80 g/ha. Also on record: key: % herbicidal action: 100 = plants died, 0 = like control. The experiment is classed as in vivo. In a few lines:
(§2)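 Sandy loam, greenhouse; one-leaf stage (2–3 wk after sowing); foliar spray of WP or EC, 600–800 l/ha water + 0.2% wetter; visual rating at ~3 wk vs untreated, % effect.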
Turning to `Cn1nnnc1NC(=O)c1ccc(C(F)(F)F)c(CS(C)(=O)=O)c1Cl` [Example 1-298], the “herbicidal action LOLMU” value is 80%.
Take `Cc1c(C(=O)Nc2nnnn2C)ccc(C(F)(F)F)c1C[S+](C)[O-]` (stereo not shown) [Example 1-84]: the “herbicidal action LOLMU” value is 80%.
Regarding `CSCc1c(C(F)(F)F)ccc(C(=O)Nc2nnnn2C)c1Br` [Example 1-380], the “herbicidal action LOLMU” value is listed as 100%.
On to `CSCc1c(C(F)(F)F)ccc(C(=O)Nc2nnnn2C)c1Cl` [Example 1-296], for which the “herbicidal action LOLMU” value was 90%.
As for `CCn1nnnc1NC(=O)c1ccc(C(F)(F)F)c(C[S+](C)[O-])c1Br` (stereo not shown) [Example 2-381], the “herbicidal action LOLMU” value is 80%.

The next experiment concerns Lolium multiflorum. Kind of experiment: Pre-emergence herbicidal action, LOLMU. The class given is in vivo. The conditions noted are these: dosage 320 g/ha, scored visually after 3 weeks vs untreated controls (100% = plants have died). In a few lines:
as §1
Turning to `CCn1nnnc1NC(=O)c1ccc(C(F)(F)F)c(CSC)c1SC` [Example 2-161], the “herbicidal activity LOLMU” value is 80%.
Consider `Cn1nnnc1NC(=O)c1ccc(C(F)(F)F)c(CS(C)(=O)=O)c1Cl` [Example 1-298], for which the “herbicidal activity LOLMU” value amounted to 90%.
Regarding `CSCc1c(C(F)(F)F)ccc(C(=O)Nc2nnnn2C)c1Cl` [Example 1-296], the “herbicidal activity LOLMU” value is 90%.
Turning to `CCn1nnnc1NC(=O)c1ccc(C(F)(F)F)c(C[S+](C)[O-])c1Br` (stereo not shown) [Example 2-381], the “herbicidal activity LOLMU” value worked out at 80%.
As for `Cn1nnnc1NC(=O)c1ccc(Cl)c(CS(C)(=O)=O)c1Cl` [Example 1-561], the “herbicidal activity LOLMU” value was 80%.

A further experiment concerns Viola tricolor. Kind of experiment: Post-emergence herbicidal action, VIOTR. The class given is in vivo. Also on record: key: % herbicidal action vs untreated; 100 = plants died, 0 = like control. The conditions noted are these: Dosage 80 g/ha. In short, it runs like this:
as §2
Take `Cn1nnnc1NC(=O)c1ccc(Cl)c(CS(C)(=O)=O)c1Cl` [Example 1-561]: the “herbicidal action VIOTR” value amounted to 100.

The experiment is the same for the next values; noted with them: comparative experiment, post-emergence, 5 g of a.i./ha.
Turning to `CSCc1c(C(F)(F)F)ccc(C(=O)Nc2nnnn2C)c1Cl` [Example 1-296], the “Herbicidal action against VIOTR” value came to 100.

Still in this experiment, the particulars now being: post-emergence, dosage 80 g/ha.
As to `CCn1nnnc1NC(=O)c1ccc(C(F)(F)F)c(CSC)c1SC` [Example 2-161], the “herbicidal action VIOTR” value was 100%.
Turning to `Cn1nnnc1NC(=O)c1ccc(C(F)(F)F)c(CS(C)(=O)=O)c1Cl` [Example 1-298], the “herbicidal action VIOTR” value is reported as 100%.
As for `Cc1c(C(=O)Nc2nnnn2C)ccc(C(F)(F)F)c1C[S+](C)[O-]` (stereo not shown) [Example 1-84], the “herbicidal action VIOTR” value was found to be 100%.
Still for that read-out and setting: under `CSCc1c(C(F)(F)F)ccc(C(=O)Nc2nnnn2C)c1Br` [Example 1-380] stands 100%; under `CSCc1c(C(F)(F)F)ccc(C(=O)Nc2nnnn2C)c1Cl` [Example 1-296], 100%; under `CCn1nnnc1NC(=O)c1ccc(C(F)(F)F)c(C[S+](C)[O-])c1Br` (stereo not shown) [Example 2-381], 100%.

In the next experiment the test system is Cyperus esculentus. Kind of experiment: Post-emergence herbicidal action, CYPES. The experiment is classed as in vivo. Also on record: key: % herbicidal action vs untreated; 100 = plants died, 0 = like control. The following applies: Dosage 80 g/ha. In short, it runs like this:
as §2
Regarding `Cn1nnnc1NC(=O)c1ccc(Cl)c(CS(C)(=O)=O)c1Cl` [Example 1-561], the “herbicidal action CYPES” value came out at 80.

Still in this experiment, the particulars now being: comparative experiment, post-emergence, 5 g of a.i./ha.
On to `Cn1nnnc1NC(=O)c1ccc(C(F)(F)F)c(CS(C)(=O)=O)c1Cl` [Example 1-298], for which the “Herbicidal action against CYPES” value worked out at 60.

Staying with this experiment, now noted: post-emergence, dosage 80 g/ha.
`CCn1nnnc1NC(=O)c1ccc(C(F)(F)F)c(CSC)c1SC` [Example 2-161]: the “herbicidal action CYPES” value was 80%.
For the compound `Cn1nnnc1NC(=O)c1ccc(C(F)(F)F)c(CS(C)(=O)=O)c1Cl` [Example 1-298], the “herbicidal action CYPES” value is on record as 90%.
As for `Cc1c(C(=O)Nc2nnnn2C)ccc(C(F)(F)F)c1C[S+](C)[O-]` (stereo not shown) [Example 1-84], the “herbicidal action CYPES” value is recorded as 80%.
The same measure, in the same setting: then `CSCc1c(C(F)(F)F)ccc(C(=O)Nc2nnnn2C)c1Cl` [Example 1-296], with 90%.

Another experiment deals with Cyperus esculentus. Kind of experiment: Pre-emergence herbicidal action, CYPES. The class given is in vivo. Also on record: key: % activity: 100 = plants have died, 0 = like control plants. The conditions noted are these: comparative experiment, 20 g of a.i./ha. In short, it runs like this:
as §1
With `Cn1nnnc1NC(=O)c1ccc(C(F)(F)F)c(CS(C)(=O)=O)c1Cl` [Example 1-298], the “Herbicidal action against CYPES” value is listed as 100.
As to `CSCc1c(C(F)(F)F)ccc(C(=O)Nc2nnnn2C)c1Br` [Example 1-380], the “Herbicidal action against CYPES” value is on record as 60.

The record behind these values is patent US12492173B2, “Herbicidal substituted N-tetrazolyl aryl carboxamides” (Bayer Aktiengesellschaft, priority 2019, dated 2025).
